Patent publication US11787855B2, “Egg, fertilized egg, or embryo quality improving agent” (MPO, INC., priority 2016, dated 2023)

Columns and labels:
[1] = system: fertilized eggs of aged mice; experiment: In vitro culture of aged mouse embryo, blastocyst reaching rate; type: cell-based; conditions: fertilized eggs of 42-week-old aged mice, different concentrations, cultured 4 days, control group vs drug treated group (FIG. 2)
Description: (§1) Ovulated mature eggs were collected from 42-week-old aged mice and subjected to in vitro fertilization, the obtained fertilized egg (zygote) was in vitro cultured using a culture medium to which a neutralizing antibody of a candidate factor or an antagonist of a specific receptor was added, and the blastocyst reaching rate was determined in order to verify embryo development ability. The obtained blastocysts were embryo transplanted into pseudopregnant mice, for which the implantation rate and the offspring acquisition rate were examined, and the quality of embryos was further evaluated. Specifically, the experiment was carried out as follows.
ICR female mice (CLEA Japan, Inc., Tokyo, Japan) were used as laboratory animals. The mice were bred at a room temperature of 22° C. and a humidity of 55% under light and dark environments every 12 hours. MF control diet (Oriental Yeast Co., ltd., Tokyo, Japan) was given 6 g per mouse per day. Water was allowed to be freely ingested at any time. […]
Mice past 3 weeks and 42 weeks of age confirmed the sexual cycle by vaginal smear. […] After culturing, the sperm was removed from the egg in 30 μl KSOM Medium (Merck Millipore, Darmstadt, Germany), and the number of 2 cell stage embryos was calculated at that time. […] The blastocyst reaching rate was calculated as the number of blastocysts/the number of two cell stage embryos.

[2] = system: blastocysts of aged mice transplanted into pseudopregnant mice; experiment: Embryo transplantation of aged mouse blastocysts into pseudopregnant mice, implantation rate and offspring acquisition rate; type: in vivo; conditions: only antagonist 10 nM added (FIG. 4)
Description: as §1
After culturing for 4 days, an embryo reaching a blastocyst stage embryo was transplanted. Recipient mice were ICR female mice of 6 to 10 weeks of age, and mated with ICR male mice vasoligated on the day before a harvesting day, and an individual whose vaginal plug could be confirmed the next day was used. General anesthesia was given with somnopentyl anesthetic, and the uterus was exposed by a back dorsal incision. […] Implantation rate was calculated as the number of implantation traces/the number of embryo transplantations, and the offspring acquisition rate was calculated as the litter size/the number of implantation traces.

[3] = system: fertilized eggs of young mice; experiment: In vitro culture of young mouse embryo with added CXCL5, blastocyst reaching rate; type: cell-based; conditions: vs non-added control group (FIG. 5)
Description: Mice past 3 weeks and 42 weeks of age confirmed the sexual cycle by vaginal smear. 10 IU of gonadotropin (ASKA Pharmaceutical. Co., Tokyo, Japan) was intraperitoneally administered at the time of proestrus. Cumulus oocyte complexes (COCs) were collected from a fallopian tube 15 hours after administration, and precultured for 30 minutes in 100 μl TYH medium (LSI Medience corporation, Tokyo, Japan). Meanwhile, ICR male mice (10-12 weeks old) were subjected to general anesthesia with somnopentyl anesthetic (Kyoritsuseiyaku Corporation, Tokyo, Japan), and cauda epididymis was extracted. A portion of the cauda epididymis was incised, and the internal sperm was extruded and collected. […] After culturing, the sperm was removed from the egg in 30 μl KSOM Medium (Merck Millipore, Darmstadt, Germany), and the number of 2 cell stage embryos was calculated at that time. […] The blastocyst reaching rate was calculated as the number of blastocysts/the number of two cell stage embryos.
In the in vitro culture system of young mouse embryo, whether or not there was a change in blastocyst reaching rate, implantation rate, offspring acquisition rate by adding the candidate factor was examined using a similar method to Example 2. Expression in the embryos of aging markers p16, p21, p53, PAI-1, and IL-6 was measured, and whether or not cell aging was induced was investigated. […]

[4] = system: blastocysts of young mice transplanted into pseudopregnant mice; experiment: Embryo transplantation of young mouse blastocysts obtained with added CXCL5 into pseudopregnant mice; type: in vivo
Description: After culturing for 4 days, an embryo reaching a blastocyst stage embryo was transplanted. Recipient mice were ICR female mice of 6 to 10 weeks of age, and mated with ICR male mice vasoligated on the day before a harvesting day, and an individual whose vaginal plug could be confirmed the next day was used. General anesthesia was given with somnopentyl anesthetic, and the uterus was exposed by a back dorsal incision. The uterus was fixed with tweezers, a 30 G injection needle (Dentronics, Tokyo, Japan) was drilled at an oviduct joint, a glass capillary with blastocyst aspirated was inserted, and the embryo was transplanted into the uterus. After transplantation, the uterus was carefully returned to the body, and the retroperitoneum and the skin were sutured. At the time of transplantation, blastocysts obtained from mice of each group were transplanted into recipient mice for each individual. Cesarean section was carried out on the 19th day with the next day of egg collection as the first day. Recipient mice were euthanized and underwent laparotomy, and the uterus was extracted and the fetus was removed. Implantation rate was calculated as the number of implantation traces/the number of embryo transplantations, and the offspring acquisition rate was calculated as the litter size/the number of implantation traces.
Based on the method described in Example 2, blastocysts of the control group and the drug treated group were transplanted into pseudopregnant mice. The implantation rate and the offspring acquisition rate were then calculated.

[5] = system: aging markers (p16, p21, p53, PAI-1, IL-6) in young mouse embryos; experiment: Expression levels of aging markers in embryos by Realtime RT-PCR; type: cell-based; conditions: embryos to which CXCL5 was added (n=30)
Description: In the in vitro culture system of young mouse embryo, whether or not there was a change in blastocyst reaching rate, implantation rate, offspring acquisition rate by adding the candidate factor was examined using a similar method to Example 2. Expression in the embryos of aging markers p16, p21, p53, PAI-1, and IL-6 was measured, and whether or not cell aging was induced was investigated. Specifically, the experiment was carried out as follows.
Expression levels of aging markers (p16, p21, p53, PAI-1, IL-6) in embryos to which CXCL5 was added (n=30) were measured using Realtime RT-PCR.

[6] = heat-denatured CXCL5 1,000 nM vs control group
[7] = T-test *P<0.05 vs control (FIG. 7)

## O=C(Nc1ccc([N+](=O)[O-])cc1O)Nc1ccccc1Br [antagonist, SB225002]
[1]
  blastocyst reaching rate: no significant difference
[2]
  implantation rate: tended to be higher
  offspring acquisition rate: tended to be higher

## heat-denatured CXCL5: CXCL5 (ab9803, abcam) heat-denatured (95° C., 5 min), used at 1,000 nM
[3]; heat-denatured (95° C., 5 min) CXCL5 1,000 nM
  blastocyst reaching rate: not significantly different
[4]; [6]
  implantation rate: no significant difference
  offspring acquisition rate: no significant difference

## CXCL5: CXCL5 (ab9803, abcam), a chemokine, added to young mouse embryo culture
[3]; CXCL5 100 nM, 300 nM, 1,000 nM, cultured 4 days
  blastocyst reaching rate: not significantly different
[4]; CXCL5-added group vs control group (FIG. 6)
  offspring acquisition rate: no significant difference
[4]; CXCL5-added group vs control, *P<0.05 (FIG. 6)
  implantation rate: decreased
[4]; CXCL5 added at 1,000 nM vs non-addition control group (FIG. 6)
  implantation rate: a significant difference was observed
[5]; [7]
  expression level of IL-6: significant increase
  expression level of PAI-1: significant increase
  expression level of p21: significant increase
  expression level of p53: significant increase
[5]; vs control
  expression level of p16: no significant difference
